Data as given in patent US8461181B2, “Fused heterocyclic compound and use thereof” (Sumitomo Chemical Company, Ltd., priority 2009, dated 2013).

What was measured:
Assay type in all cases: in vivo
Aphis gossypii [1] = assay: Test Example 1: spray on cucumber seedling inoculated with Aphis gossypii; details: 500 ppm, 10 ml sprayed on cucumber seedling inoculated with about 30 Aphis gossypii; five days after spraying
Protocol: The formulations of the present active compounds (1) to (15), (17) to (25), (27) to (56), (101) to (103), (105) to (108), (117), (118), (121) to (130), (133) to (144), (147), (148), (152) to (156), (202), (204) to (206), (208), (209), (211) to (213), and (216) to (221) obtained by Formulation Example 5 were diluted with water so that the active ingredient concentration was 500 ppm, to prepare spray solutions for test. Separately, a cucumber seedling (second true leaf spreading stage) planted on a plastic cup was inoculated with about 30 Aphis gossypii, and left for 1 day. The above-described diluted solutions were sprayed each in an amount of 10 ml on this seedling. Five days after spraying, the number of insect of living Aphis gossypii […] on the leaves of this cucumber was checked, and the control value was calculated according to the following formula. Control value (%)={1-(Cb×Tai)/(Cai×Tb)}×100 Letters in the formula represent the following meanings. Cb: the number of insect before treatment on non-treated district Cai: the number of insect in observation on non-treated district Tb: the number of insect before treatment on treated district Tai: the number of insect in observation on treated district

Aphis gossypii [2] = assay: Test Example 4: foot drench of cucumber seedling in plastic cup, inoculation after 7 days, Aphis gossypii; details: soil, 144 h, 5 ml drench at foot of cucumber seedling in plastic cup, kept 7 days at 25° C., inoculated, further 6 days
In short: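 Cucumber seedlings at second true leaf stage were soil-drenched with 5 ml of 500 ppm active ingredient and held 7 days at 25° C in greenhouse. Then 30 aphids (all stages) were placed on leaves; live insects counted 6 days later, control value (%) from treated/untreated counts before and after.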

Nilaparvata lugens [3] = assay: Test Example 9: foot drench of rice seedling, twenty first instar larvae of Nilaparvata lugens; details: soil, 144 h, 5 ml drench at foot of rice seedling, kept 7 days, twenty first instar larvae released, further 6 days
Bemisia tabaci = assay: Test Example 5: spray on tomato seedling with Bemisia tabaci larvae; details: 168 h, 10 ml/cup sprayed on tomato seedling with hatching Bemisia tabaci larvae, 7 days at 25° C.
Protocol: The formulations of the present active compounds (1) to (5), (7) to (15), (17) to (21), (25), (28) to (45), (48) to (56), (101) to (103), (106), (107), (117), (118), (121) to (145), (147) to (151), (153) to (155), (204), (206), (208), (209), (211) to (213) and (216) to (221) obtained by Formulation Example 5 were diluted with water so that the active ingredient concentration was 500 ppm, to prepare spray solutions for test. Separately, on a tomato seedling planted on a plastic cup, Bemisia tabaci adult insects were released and allowed to lay eggs for about 24 hours. The tomato seedling was kept in a greenhouse […], and the above-described spray solutions for test were sprayed at a proportion of 10 ml/cup on the condition of hatching of larvae from the laid eggs, and kept in a greenhouse of 25° C. for 7 days. The number of living larvae on the tomato leaves was checked, and the control value was calculated according to the following formula. Control value (%)={1−(Cb×Tai)/(Cai×Tb)}×100 Letters in the formula represent the following meanings. Cb: the number of insect before treatment on non-treated district Cai: the number of insect in observation on non-treated district Tb: the number of insect before treatment on treated district Tai: the number of insect in observation on treated district

Aphis gossypii [4] = assay: Test Example 2: foot drench of cucumber seedling on urethane mat, Aphis gossypii; details: soil, 168 h, 5 ml drench at foot of cucumber seedling on urethane mat, inoculated one day after treatment, checked seven days after
Protocol: The formulations of the present active compounds (4), (5), (8), (9), (11), (12), (14), (15), (17), (20), (35) to (45), (48) to (51), (54) to (56), (206), (209) and (211) to (213) obtained by Formulation Example 5 were diluted with water so that the active ingredient concentration was 500 ppm, to prepare diluted solutions for test. Separately, a cucumber seedling (second true leaf spreading stage) planted on a urethane mat was drenched at its foot with each 5 ml of the diluted solutions, and one day after treatment, the cucumber leaf surface was inoculated with 30 Aphis gossypii (whole stage). Further seven days after, the number of insect of living Aphis gossypii […] on the leaves of this cucumber was checked, and the control value was calculated according to the following formula. Control value (%)={1-(Cb×Tai)/(Cai×Tb)}×100 Letters in the formula represent the following meanings. Cb: the number of insect before treatment on non-treated district Cai: the number of insect in observation on non-treated district Tb: the number of insect before treatment on treated district Tai: the number of insect in observation on treated district

Nilaparvata lugens [5] = assay: Test Example 7: foot drench of rice seedling, thirty first instar larvae of Nilaparvata lugens; details: soil, 144 h, 5 ml drench at foot of rice seedling, kept 7 days, thirty first instar larvae released, further 6 days
Protocol: The formulations of the present active compounds (11), (13) to (15), (17), (23), (26), (35) to (41), (43) to (45), (48) to (51), (54), (55), (209), (211) and (212) obtained by Formulation Example 5 were diluted with water so that the active ingredient concentration was 500 ppm, to prepare diluted solutions for test. Separately, a rice seedling (2 weeks after sowing, second leaf spreading stage) planted on a plastic cup was drenched at its foot with each 5 ml of the diluted solutions, and kept in a greenhouse of 25° C. for 7 days. Thirty first instar larvae of Nilaparvata lugens were released, and further kept in the greenhouse for 6 days. The number of insect of living Nilaparvata lugens […] on rice was checked, and the control value was calculated according to the following formula. Control value (%)={1-(Cb×Tai)/(Cai×Tb)}×100 Letters in the formula represent the following meanings. Cb: the number of insect before treatment on non-treated district Cai: the number of insect in observation on non-treated district Tb: the number of insect before treatment on treated district Tai: the number of insect in observation on treated district

SMILES | control value (Aphis gossypii [1]) | pest or weed control at 500 ppm (Bemisia tabaci) | pest or weed control at 500 ppm (Aphis gossypii [4]) | other results
CC(CC(=O)O)n1c(-c2ccncc2)nc2cc(C(F)(F)F)ccc21 (stereo not shown) [comparative compound (B)] | less than 30% |  |  | 
Cc1cc2nc(-c3ccncc3)n(C)c2cc1C [comparative compound (C)] | less than 30% |  |  | 
COCCc1cnccc1-c1nc2cc(C(F)(F)F)cnc2n1C [present active compound 106] |  | ≥ 90% |  | pest or weed control at 500 ppm (Aphis gossypii [2]): ≥ 90%; pest or weed control at 500 ppm (Nilaparvata lugens [3]): ≥ 90%
CCCCOc1cnccc1-c1nc2cc(C(F)(F)F)ccc2n1C [present active compound 206, 2-(3-butoxypyridin-4-yl-)-1-methyl-5-trifluoromethyl-1H-benzimidazole] |  | ≥ 90% | ≥ 90% | 
C=C(CF)Oc1cnccc1-c1nc2cc(C(F)(F)F)ccc2n1C [present active compound 209, 2-[3-(1-fluoromethyl-vinyloxy)-pyridin-4-yl-]-1-methyl-5-trifluoromethyl-1H-benzimidazole] |  | ≥ 90% | ≥ 90% | pest or weed control at 500 ppm (Nilaparvata lugens [5]): ≥ 90%
